Source: PMC10905675, “INX-315, a Selective CDK2 Inhibitor, Induces Cell Cycle Arrest and Senescence in Solid Tumors” (Cancer Discovery, 2023)

Legend:
Assay in all cases: SelectScreen ZLYTE
Format in all cases: biochemical
Conditions in all cases: INX-0315 at 100nM
RAF1 (cRAF) Y340D Y341D = target: T1, RAF1 (cRAF) Y340D Y341D (Homo sapiens, UniProt P04049, Y340D/Y341D)
T1 construct: purchased Thermo Fisher Scientific SelectScreen (plus Nanosyn / Reaction Biology for CDK/cyclin lines)
In short: (§1)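 Under the service's preestablished protocols, INX-315 was tested initially at 100 nmol/L with 1% DMSO present, and subsequently across ten concentrations from 1 µmol/L to 0.0495 nmol/L.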

MAPK8 (JNK1) = target: T2, MAPK8 (JNK1) (Homo sapiens, UniProt P45983)
T2 construct: purchased Thermo Fisher Scientific SelectScreen (plus Nanosyn / Reaction Biology for CDK/cyclin lines)
In short: as §1

AMPK A1/B1/G1 = target: T3, AMPK A1/B1/G1 (Homo sapiens, UniProt Q13131)
T3 construct: purchased Thermo Fisher Scientific SelectScreen (plus Nanosyn / Reaction Biology for CDK/cyclin lines)
In short: as §1

CSNK1D (CK1 delta) = target: T4, CSNK1D (CK1 delta) (Homo sapiens, UniProt P48730)
T4 construct: purchased Thermo Fisher Scientific SelectScreen (plus Nanosyn / Reaction Biology for CDK/cyclin lines)
In short: as §1

AKT1 (PKB alpha) = target: T5, AKT1 (PKB alpha) (Homo sapiens, UniProt P31749)
T5 construct: purchased Thermo Fisher Scientific SelectScreen (plus Nanosyn / Reaction Biology for CDK/cyclin lines)
In short: as §1

EPHA2 = target: T6, EPHA2 (Homo sapiens, UniProt P29317)
T6 construct: purchased Thermo Fisher Scientific SelectScreen (plus Nanosyn / Reaction Biology for CDK/cyclin lines)
In short: as §1

STK3 (MST2) = target: T7, STK3 (MST2) (Homo sapiens, UniProt Q13188)
T7 construct: purchased Thermo Fisher Scientific SelectScreen (plus Nanosyn / Reaction Biology for CDK/cyclin lines)
In short: as §1

GRK4 = target: T8, GRK4 (Homo sapiens, UniProt P32298)
T8 construct: purchased Thermo Fisher Scientific SelectScreen (plus Nanosyn / Reaction Biology for CDK/cyclin lines)
In short: as §1

MAPK13 (p38 delta) = target: T9, MAPK13 (p38 delta) (Homo sapiens, UniProt O15264)
T9 construct: purchased Thermo Fisher Scientific SelectScreen (plus Nanosyn / Reaction Biology for CDK/cyclin lines)
In short: as §1

CSK = target: T10, CSK (Homo sapiens, UniProt P41240)
T10 construct: purchased Thermo Fisher Scientific SelectScreen (plus Nanosyn / Reaction Biology for CDK/cyclin lines)
In short: as §1

ALK = target: T11, ALK (Homo sapiens, UniProt Q9UM73)
T11 construct: purchased Thermo Fisher Scientific SelectScreen (plus Nanosyn / Reaction Biology for CDK/cyclin lines)
In short: as §1

CDK1/cyclin B = target: T12, CDK1/cyclin B (Homo sapiens, UniProt P06493)
T12 construct: purchased Thermo Fisher Scientific SelectScreen (plus Nanosyn / Reaction Biology for CDK/cyclin lines)
In short: as §1

CLK2 = target: T13, CLK2 (Homo sapiens, UniProt P49760)
T13 construct: purchased Thermo Fisher Scientific SelectScreen (plus Nanosyn / Reaction Biology for CDK/cyclin lines)
In short: as §1

PASK = target: T14, PASK (Homo sapiens, UniProt Q96RG2)
T14 construct: purchased Thermo Fisher Scientific SelectScreen (plus Nanosyn / Reaction Biology for CDK/cyclin lines)
In short: as §1

MAPK3 (ERK1) = target: T15, MAPK3 (ERK1) (Homo sapiens, UniProt P27361)
T15 construct: purchased Thermo Fisher Scientific SelectScreen (plus Nanosyn / Reaction Biology for CDK/cyclin lines)
In short: as §1

EPHB2 = target: T16, EPHB2 (Homo sapiens, UniProt P29323)
T16 construct: purchased Thermo Fisher Scientific SelectScreen (plus Nanosyn / Reaction Biology for CDK/cyclin lines)
In short: as §1

PTK6 (Brk) = target: T17, PTK6 (Brk) (Homo sapiens, UniProt Q13882)
T17 construct: purchased Thermo Fisher Scientific SelectScreen (plus Nanosyn / Reaction Biology for CDK/cyclin lines)
In short: as §1

JAK2 JH1 JH2 V617F = target: T18, JAK2 JH1 JH2 V617F (Homo sapiens, UniProt O60674, V617F)
T18 construct: JAK2 JH1 JH2 V617F; purchased Thermo Fisher Scientific SelectScreen (plus Nanosyn / Reaction Biology for CDK/cyclin lines)
In short: as §1

MAP4K5 (KHS1) = target: T19, MAP4K5 (KHS1) (Homo sapiens, UniProt Q9Y4K4)
T19 construct: purchased Thermo Fisher Scientific SelectScreen (plus Nanosyn / Reaction Biology for CDK/cyclin lines)
In short: as §1

AURKB (Aurora B) = target: T20, AURKB (Aurora B) (Homo sapiens, UniProt Q96GD4)
T20 construct: purchased Thermo Fisher Scientific SelectScreen (plus Nanosyn / Reaction Biology for CDK/cyclin lines)
In short: as §1

BMX = target: T21, BMX (Homo sapiens, UniProt P51813)
T21 construct: purchased Thermo Fisher Scientific SelectScreen (plus Nanosyn / Reaction Biology for CDK/cyclin lines)
In short: as §1

ABL1 = target: T22, ABL1 (Homo sapiens, UniProt P00519)
T22 construct: purchased Thermo Fisher Scientific SelectScreen (plus Nanosyn / Reaction Biology for CDK/cyclin lines)
In short: as §1

ABL1 T315I = target: T23, ABL1 T315I (Homo sapiens, UniProt P00519, T315I)
T23 construct: purchased Thermo Fisher Scientific SelectScreen (plus Nanosyn / Reaction Biology for CDK/cyclin lines)
In short: as §1

PRKCB1 (PKC beta I) = target: T24, PRKCB1 (PKC beta I) (Homo sapiens, UniProt P05771)
T24 construct: purchased Thermo Fisher Scientific SelectScreen (plus Nanosyn / Reaction Biology for CDK/cyclin lines)
In short: as §1

FGFR4 = target: T25, FGFR4 (Homo sapiens, UniProt P22455)
T25 construct: purchased Thermo Fisher Scientific SelectScreen (plus Nanosyn / Reaction Biology for CDK/cyclin lines)
In short: as §1

PDGFRA D842V = target: T26, PDGFRA D842V (Homo sapiens, UniProt P16234, D842V)
T26 construct: purchased Thermo Fisher Scientific SelectScreen (plus Nanosyn / Reaction Biology for CDK/cyclin lines)
In short: as §1

RPS6KA5 (MSK1) = target: T27, RPS6KA5 (MSK1) (Homo sapiens, UniProt O75582)
T27 construct: purchased Thermo Fisher Scientific SelectScreen (plus Nanosyn / Reaction Biology for CDK/cyclin lines)
In short: as §1

ABL1 E255K = target: T28, ABL1 E255K (Homo sapiens, UniProt P00519, E255K)
T28 construct: purchased Thermo Fisher Scientific SelectScreen (plus Nanosyn / Reaction Biology for CDK/cyclin lines)
In short: as §1

ABL1 Y253F = target: T29, ABL1 Y253F (Homo sapiens, UniProt P00519, Y253F)
T29 construct: purchased Thermo Fisher Scientific SelectScreen (plus Nanosyn / Reaction Biology for CDK/cyclin lines)
In short: as §1

PAK3 = target: T30, PAK3 (Homo sapiens, UniProt O75914)
T30 construct: purchased Thermo Fisher Scientific SelectScreen (plus Nanosyn / Reaction Biology for CDK/cyclin lines)
In short: as §1

PRKCZ (PKC zeta) = target: T31, PRKCZ (PKC zeta) (Homo sapiens, UniProt Q05513)
T31 construct: purchased Thermo Fisher Scientific SelectScreen (plus Nanosyn / Reaction Biology for CDK/cyclin lines)
In short: as §1

CSNK1A1L = target: T32, CSNK1A1L (Homo sapiens, UniProt Q8N752)
T32 construct: purchased Thermo Fisher Scientific SelectScreen (plus Nanosyn / Reaction Biology for CDK/cyclin lines)
In short: as §1

LYN B = target: T33, LYN B (Homo sapiens, UniProt P07948)
T33 construct: purchased Thermo Fisher Scientific SelectScreen (plus Nanosyn / Reaction Biology for CDK/cyclin lines)
In short: as §1

CSNK2A2 (CK2 alpha 2) = target: T34, CSNK2A2 (CK2 alpha 2) (Homo sapiens, UniProt P19784)
T34 construct: purchased Thermo Fisher Scientific SelectScreen (plus Nanosyn / Reaction Biology for CDK/cyclin lines)
In short: as §1

RPS6KA6 (RSK4) = target: T35, RPS6KA6 (RSK4) (Homo sapiens, UniProt Q9UK32)
T35 construct: purchased Thermo Fisher Scientific SelectScreen (plus Nanosyn / Reaction Biology for CDK/cyclin lines)
In short: as §1

PLK3 = target: T36, PLK3 (Homo sapiens, UniProt Q9H4B4)
T36 construct: purchased Thermo Fisher Scientific SelectScreen (plus Nanosyn / Reaction Biology for CDK/cyclin lines)
In short: as §1

T24 sequence (P05771 whole entry): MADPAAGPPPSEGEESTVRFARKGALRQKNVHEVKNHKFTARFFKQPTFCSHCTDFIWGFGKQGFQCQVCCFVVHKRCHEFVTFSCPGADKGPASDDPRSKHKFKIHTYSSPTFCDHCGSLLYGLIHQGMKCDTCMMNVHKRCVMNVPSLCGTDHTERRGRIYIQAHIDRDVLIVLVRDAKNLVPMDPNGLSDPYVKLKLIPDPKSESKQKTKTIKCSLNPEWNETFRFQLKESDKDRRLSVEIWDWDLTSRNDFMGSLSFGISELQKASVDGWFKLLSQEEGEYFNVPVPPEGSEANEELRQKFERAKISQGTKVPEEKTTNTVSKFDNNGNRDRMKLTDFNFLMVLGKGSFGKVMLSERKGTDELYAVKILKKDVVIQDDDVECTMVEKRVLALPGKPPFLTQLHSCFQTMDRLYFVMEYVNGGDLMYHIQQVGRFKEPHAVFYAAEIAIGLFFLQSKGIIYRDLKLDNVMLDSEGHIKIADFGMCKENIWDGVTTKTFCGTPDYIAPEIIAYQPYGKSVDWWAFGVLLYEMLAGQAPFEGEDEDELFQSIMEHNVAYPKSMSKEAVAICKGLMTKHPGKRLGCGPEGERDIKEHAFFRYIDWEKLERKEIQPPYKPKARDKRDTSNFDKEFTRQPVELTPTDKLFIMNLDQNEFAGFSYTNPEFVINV
T17 sequence (Q13882 whole entry): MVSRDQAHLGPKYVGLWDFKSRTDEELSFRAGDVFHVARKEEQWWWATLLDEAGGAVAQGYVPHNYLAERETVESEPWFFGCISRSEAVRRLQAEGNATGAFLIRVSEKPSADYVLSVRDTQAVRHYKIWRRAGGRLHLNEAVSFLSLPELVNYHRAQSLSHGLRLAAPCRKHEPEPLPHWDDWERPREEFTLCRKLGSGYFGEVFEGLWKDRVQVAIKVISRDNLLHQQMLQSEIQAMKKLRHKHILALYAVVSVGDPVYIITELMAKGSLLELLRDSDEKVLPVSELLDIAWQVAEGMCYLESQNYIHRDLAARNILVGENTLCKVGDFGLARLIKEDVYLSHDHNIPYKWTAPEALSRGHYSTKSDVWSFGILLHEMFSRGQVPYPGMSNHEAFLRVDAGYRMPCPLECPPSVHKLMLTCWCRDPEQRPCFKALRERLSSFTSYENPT
T34 sequence (P19784 whole entry): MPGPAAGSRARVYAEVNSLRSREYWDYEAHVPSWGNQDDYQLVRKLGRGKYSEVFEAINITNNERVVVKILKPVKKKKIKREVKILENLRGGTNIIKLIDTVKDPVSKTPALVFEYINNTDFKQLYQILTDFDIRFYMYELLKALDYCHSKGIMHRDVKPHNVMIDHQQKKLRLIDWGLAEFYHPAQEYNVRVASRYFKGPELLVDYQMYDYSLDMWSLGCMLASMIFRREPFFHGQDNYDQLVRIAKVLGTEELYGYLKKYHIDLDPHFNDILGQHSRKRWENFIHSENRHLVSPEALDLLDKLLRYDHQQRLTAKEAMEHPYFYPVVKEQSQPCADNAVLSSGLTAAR
T7 sequence (Q13188 whole entry): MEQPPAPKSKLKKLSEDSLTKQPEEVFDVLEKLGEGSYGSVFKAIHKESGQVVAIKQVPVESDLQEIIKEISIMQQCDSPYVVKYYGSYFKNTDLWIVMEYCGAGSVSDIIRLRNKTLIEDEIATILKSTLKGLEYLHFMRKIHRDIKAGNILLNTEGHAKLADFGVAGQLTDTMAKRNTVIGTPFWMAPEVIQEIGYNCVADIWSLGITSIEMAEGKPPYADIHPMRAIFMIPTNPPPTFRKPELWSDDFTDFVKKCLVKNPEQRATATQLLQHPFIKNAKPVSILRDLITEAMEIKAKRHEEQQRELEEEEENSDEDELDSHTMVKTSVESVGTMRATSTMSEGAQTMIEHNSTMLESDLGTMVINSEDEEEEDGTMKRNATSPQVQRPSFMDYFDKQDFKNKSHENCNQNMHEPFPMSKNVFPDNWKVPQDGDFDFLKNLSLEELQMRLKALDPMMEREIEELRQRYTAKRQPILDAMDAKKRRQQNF
T33 sequence (P07948 1-491 isoform P07948-2): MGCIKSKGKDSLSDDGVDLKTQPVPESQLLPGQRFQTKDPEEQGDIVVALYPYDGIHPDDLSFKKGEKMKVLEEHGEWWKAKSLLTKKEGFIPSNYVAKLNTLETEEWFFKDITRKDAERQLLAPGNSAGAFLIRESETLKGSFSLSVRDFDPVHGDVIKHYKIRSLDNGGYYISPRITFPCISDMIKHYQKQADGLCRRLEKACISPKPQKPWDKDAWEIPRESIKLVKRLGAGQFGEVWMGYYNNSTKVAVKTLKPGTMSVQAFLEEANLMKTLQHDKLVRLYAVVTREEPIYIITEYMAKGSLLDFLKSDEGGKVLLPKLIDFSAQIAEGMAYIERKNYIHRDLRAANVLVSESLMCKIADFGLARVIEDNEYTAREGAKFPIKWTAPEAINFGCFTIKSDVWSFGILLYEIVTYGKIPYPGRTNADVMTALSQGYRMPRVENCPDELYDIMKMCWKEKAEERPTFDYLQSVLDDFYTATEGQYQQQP
T30 sequence (O75914 whole entry): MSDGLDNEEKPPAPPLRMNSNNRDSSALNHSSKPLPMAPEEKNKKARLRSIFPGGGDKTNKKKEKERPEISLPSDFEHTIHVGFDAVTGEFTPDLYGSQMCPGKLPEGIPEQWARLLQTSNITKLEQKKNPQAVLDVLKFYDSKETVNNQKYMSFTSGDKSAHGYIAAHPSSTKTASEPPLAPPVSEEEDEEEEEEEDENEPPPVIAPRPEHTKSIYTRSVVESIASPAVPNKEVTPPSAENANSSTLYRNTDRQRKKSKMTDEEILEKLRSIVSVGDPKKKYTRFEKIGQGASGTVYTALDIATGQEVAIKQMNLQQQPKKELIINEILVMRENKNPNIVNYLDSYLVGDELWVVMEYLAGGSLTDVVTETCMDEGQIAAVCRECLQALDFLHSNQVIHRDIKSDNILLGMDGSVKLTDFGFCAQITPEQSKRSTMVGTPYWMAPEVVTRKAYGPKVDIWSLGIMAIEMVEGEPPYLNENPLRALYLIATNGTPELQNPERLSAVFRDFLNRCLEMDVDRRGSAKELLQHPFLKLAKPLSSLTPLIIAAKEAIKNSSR
T35 sequence (Q9UK32 whole entry): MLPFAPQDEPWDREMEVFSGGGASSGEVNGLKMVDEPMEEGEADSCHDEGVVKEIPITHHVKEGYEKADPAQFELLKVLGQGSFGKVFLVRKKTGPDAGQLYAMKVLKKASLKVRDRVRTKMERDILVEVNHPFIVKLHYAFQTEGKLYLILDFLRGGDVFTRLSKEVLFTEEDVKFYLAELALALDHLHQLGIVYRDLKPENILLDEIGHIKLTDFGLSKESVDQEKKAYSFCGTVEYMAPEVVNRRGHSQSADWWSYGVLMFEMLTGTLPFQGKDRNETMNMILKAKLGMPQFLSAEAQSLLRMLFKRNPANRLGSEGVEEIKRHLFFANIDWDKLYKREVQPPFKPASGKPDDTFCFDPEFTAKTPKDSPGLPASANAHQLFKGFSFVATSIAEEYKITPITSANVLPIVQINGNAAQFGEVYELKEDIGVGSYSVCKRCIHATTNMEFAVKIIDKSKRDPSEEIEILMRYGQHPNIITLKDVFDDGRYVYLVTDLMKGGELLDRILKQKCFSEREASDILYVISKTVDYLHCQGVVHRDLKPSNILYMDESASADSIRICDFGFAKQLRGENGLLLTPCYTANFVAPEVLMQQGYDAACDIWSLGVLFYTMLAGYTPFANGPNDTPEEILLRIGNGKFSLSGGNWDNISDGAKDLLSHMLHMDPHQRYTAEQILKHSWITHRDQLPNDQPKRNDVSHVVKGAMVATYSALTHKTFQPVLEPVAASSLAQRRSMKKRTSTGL
T26 sequence (P16234 24-1089 D842V): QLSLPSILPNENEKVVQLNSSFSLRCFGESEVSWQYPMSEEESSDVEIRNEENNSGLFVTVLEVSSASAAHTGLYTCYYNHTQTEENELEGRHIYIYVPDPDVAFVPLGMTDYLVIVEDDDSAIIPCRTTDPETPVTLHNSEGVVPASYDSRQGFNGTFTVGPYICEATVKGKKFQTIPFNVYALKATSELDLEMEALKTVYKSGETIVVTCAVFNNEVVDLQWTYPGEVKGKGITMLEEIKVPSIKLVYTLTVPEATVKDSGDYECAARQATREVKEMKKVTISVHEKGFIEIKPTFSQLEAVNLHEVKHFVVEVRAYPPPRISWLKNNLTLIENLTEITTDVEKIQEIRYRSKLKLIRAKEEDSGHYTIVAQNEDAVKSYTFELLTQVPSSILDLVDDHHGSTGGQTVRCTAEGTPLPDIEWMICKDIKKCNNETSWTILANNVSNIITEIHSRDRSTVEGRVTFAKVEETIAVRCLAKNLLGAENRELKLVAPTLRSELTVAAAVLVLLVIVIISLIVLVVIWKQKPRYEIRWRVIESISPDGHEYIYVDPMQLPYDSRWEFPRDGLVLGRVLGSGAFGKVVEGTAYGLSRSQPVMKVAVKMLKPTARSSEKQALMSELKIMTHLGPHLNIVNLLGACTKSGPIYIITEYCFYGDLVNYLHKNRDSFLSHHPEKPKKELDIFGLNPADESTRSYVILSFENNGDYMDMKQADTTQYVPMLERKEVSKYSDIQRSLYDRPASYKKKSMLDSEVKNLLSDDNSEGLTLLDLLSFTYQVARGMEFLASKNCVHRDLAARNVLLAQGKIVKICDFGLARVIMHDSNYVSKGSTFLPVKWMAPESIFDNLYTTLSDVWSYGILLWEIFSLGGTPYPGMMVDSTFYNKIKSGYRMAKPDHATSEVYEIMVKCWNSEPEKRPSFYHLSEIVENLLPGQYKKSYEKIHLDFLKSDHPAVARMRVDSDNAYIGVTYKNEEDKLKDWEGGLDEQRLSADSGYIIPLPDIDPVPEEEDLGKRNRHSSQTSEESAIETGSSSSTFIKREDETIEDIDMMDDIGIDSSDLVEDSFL

For NS(=O)(=O)c1ccc(Nc2ncc3cc4n(c3n2)C2(CCCCC2)C(=O)NN4)cc1 [INX-315], the inhibition at 0.1 µM (RAF1 (cRAF) Y340D Y341D) was 5%, the inhibition at 0.1 µM (MAPK8 (JNK1)) was 6% and the inhibition at 0.1 µM (AMPK A1/B1/G1) was 32%. It also gave an inhibition at 0.1 µM (CSNK1D (CK1 delta)) of 0%, an inhibition at 0.1 µM (AKT1 (PKB alpha)) of 6% and an inhibition at 0.1 µM (EPHA2) of 14%. The inhibition at 0.1 µM (STK3 (MST2)) was 19%, the inhibition at 0.1 µM (GRK4) was 31% and the inhibition at 0.1 µM (MAPK13 (p38 delta)) was 5%. It also gave an inhibition at 0.1 µM (CSK) of 1%, an inhibition at 0.1 µM (ALK) of 16% and an inhibition at 0.1 µM (CDK1/cyclin B) of 58%. The inhibition at 0.1 µM (CLK2) was 8%, the inhibition at 0.1 µM (PASK) was 2% and the inhibition at 0.1 µM (MAPK3 (ERK1)) was 2%. The inhibition at 0.1 µM (EPHB2) was 20%, the inhibition at 0.1 µM (PTK6 (Brk)) was -1% and the inhibition at 0.1 µM (JAK2 JH1 JH2 V617F) was 39%. It also gave an inhibition at 0.1 µM (MAP4K5 (KHS1)) of 23%, an inhibition at 0.1 µM (AURKB (Aurora B)) of 53% and an inhibition at 0.1 µM (BMX) of 22%. It also gave an inhibition at 0.1 µM (ABL1) of 14%, an inhibition at 0.1 µM (ABL1 T315I) of 10% and an inhibition at 0.1 µM (PRKCB1 (PKC beta I)) of 12%. The inhibition at 0.1 µM (FGFR4) was 2%, the inhibition at 0.1 µM (PDGFRA D842V) was 13% and the inhibition at 0.1 µM (RPS6KA5 (MSK1)) was 8%. For the same compound, the inhibition at 0.1 µM (ABL1 E255K) was 11%, the inhibition at 0.1 µM (ABL1 Y253F) was 8% and the inhibition at 0.1 µM (PAK3) was 4%. For the same compound, the inhibition at 0.1 µM (PRKCZ (PKC zeta)) was 10%, the inhibition at 0.1 µM (CSNK1A1L) was 4% and the inhibition at 0.1 µM (LYN B) was 17%. The inhibition at 0.1 µM (CSNK2A2 (CK2 alpha 2)) was 4%, the inhibition at 0.1 µM (RPS6KA6 (RSK4)) was 56% and the inhibition at 0.1 µM (PLK3) was -2%.
